From US12338220B2, “Antiviral pyrazolopiridinone compounds” (Novartis AG, priority 2019, dated 2025) come the findings set out here.

The pEC50 is the EC50 on a negative log10 scale, so that one unit is a factor of ten. What is called pIC50 is the IC50 on a negative log10 scale, so that one unit is a factor of ten.

pEC50, pIC50: −log10 of the molar value. Where two headings read alike, the source gives them in different places.

Experiment [1] concerns CMV. Description: microbe, parasite or virus in culture. Format: cell-based. The settings on record: Human betaherpesvirus 5, 72 h, read-out: CMV-Luc Cellular EC50, NN-NHDF cells, MOI 1, 72 hrs.
Experiment [2] concerns the target CMV-polymerase (Human cytomegalovirus (strain AD169) (HHV-5) (Human herpesvirus 5), UniProt P08546). Nature of the experiment: biochemical.
Where [3] appears, read: read-out: CMV-polymerase Biochemical IC50.
Where [4] appears, read: CMV-polymerase Biochemical IC50.

`Cc1cc(CNC(=O)c2nn(C)c3c2CCN(CC2(S(=O)(=O)C4CC4)CC2)C3=O)ccc1C#N` [Example 11, N-(4-Cyano-3-methylbenzyl)-6-((1-(cyclopropylsulfonyl)cyclopropyl)methyl)-1-methyl-7-oxo-4,5,6,7-tetrahydro-1H-pyrazolo[3,4-c]pyridine-3-carboxamide]: the negative-log EC50 (pEC50) in experiment [1] was 6.67. Further, the pIC50 in experiment [2] (setting [3]) was 7.77.
For `Cc1cc(C#N)ccc1CNC(=O)c1nn(C)c2c1CCN(CC1(S(=O)(=O)C3CC3)CC1)C2=O` [Example 12, N-(4-Cyano-2-methylbenzyl)-6-((1-(cyclopropylsulfonyl)cyclopropyl)methyl)-1-methyl-7-oxo-4,5,6,7-tetrahydro-1H-pyrazolo[3,4-c]pyridine-3-carboxamide], in that order: 7.06 and 8.70.
Turning to `Cn1nc(C(=O)NCc2ccc(C#N)cc2F)c2c1C(=O)N(CC1(S(=O)(=O)C3CC3)CC1)CC2` [Example 13, N-(4-Cyano-2-fluorobenzyl)-6-((1-(cyclopropylsulfonyl)cyclopropyl)methyl)-1-methyl-7-oxo-4,5,6,7-tetrahydro-1H-pyrazolo[3,4-c]pyridine-3-carboxamide], the pEC50 in experiment [1] was 6.99. The pIC50 in experiment [2] (setting [3]) is 8.22.
As for `Cn1nc(C(=O)NCc2ccc(C#N)cn2)c2c1C(=O)N(CC1(S(=O)(=O)C3CC3)CC1)CC2` [Example 14, N-((5-Cyanopyridin-2-yl)methyl)-6-((1-(cyclopropylsulfonyl)cyclopropyl)methyl)-1-methyl-7-oxo-4,5,6,7-tetrahydro-1H-pyrazolo[3,4-c]pyridine-3-carboxamide], the pEC50 in experiment [1] was 6.23. For the same compound, the pIC50 in experiment [2] (setting [3]) is 7.02.
`COc1cc(CNC(=O)c2nn(C)c3c2CCN(CC2(S(=O)(=O)C4CC4)CC2)C3=O)ccc1C#N` [Example 15, N-(4-Cyano-3-methoxybenzyl)-6-((1-(cyclopropylsulfonyl)cyclopropyl)methyl)-1-methyl-7-oxo-4,5,6,7-tetrahydro-1H-pyrazolo[3,4-c]pyridine-3-carboxamide]: the negative-log EC50 (pEC50) in experiment [1] was 6.79. The pIC50 in experiment [2] (setting [3]) is 7.96.
Regarding `C[C@H](NC(=O)c1nn(C)c2c1CCN(CC1(S(=O)(=O)C3CC3)CC1)C2=O)c1ccc(C#N)cc1` [Example 16, (S)-N-(1-(4-Cyanophenyl)ethyl)-6-((1-(cyclopropylsulfonyl)cyclopropyl)methyl)-1-methyl-7-oxo-4,5,6,7-tetrahydro-1H-pyrazolo[3,4-c]pyridine-3-carboxamide], the pEC50 in experiment [1] is 6.77. Further, the pIC50 in experiment [2] (setting [3]) is 7.89.
With `C[C@@H](NC(=O)c1nn(C)c2c1CCN(CC1(S(=O)(=O)C3CC3)CC1)C2=O)c1ccc(C#N)cc1` [Example 17, (R)-N-(1-(4-Cyanophenyl)ethyl)-6-((1-(cyclopropylsulfonyl)cyclopropyl)methyl)-1-methyl-7-oxo-4,5,6,7-tetrahydro-1H-pyrazolo[3,4-c]pyridine-3-carboxamide], the pEC50 in experiment [1] was < 5.00. Besides, in experiment [2] (setting [3]), the pIC50 was 4.77.
With `Cn1nc(C(=O)N[C@@H](CO)c2ccc(Cl)cc2)c2c1C(=O)N(CC1(S(=O)(=O)C3CC3)CC1)CC2` [Example 18, (R)-N-(1-(4-Chlorophenyl)-2-hydroxyethyl)-6-((1-(cyclopropylsulfonyl)cyclopropyl)methyl)-1-methyl-7-oxo-4,5,6,7-tetrahydro-1H-pyrazolo[3,4-c]pyridine-3-carboxamide], in experiment [1], the negative-log EC50 (pEC50) was 6.52. Also, the negative logarithm of the IC50 (pIC50) in experiment [2] (setting [3]) is 7.66.
As for `Cn1nc(C(=O)N[C@H](CO)c2ccc(Cl)cc2)c2c1C(=O)N(CC1(S(=O)(=O)C3CC3)CC1)CC2` [Example 19, (S)-N-(1-(4-Chlorophenyl)-2-hydroxyethyl)-6-((1-(cyclopropylsulfonyl)cyclopropyl)methyl)-1-methyl-7-oxo-4,5,6,7-tetrahydro-1H-pyrazolo[3,4-c]pyridine-3-carboxamide], in experiment [1], the negative-log EC50 (pEC50) is < 5.00. Further, the pIC50 in experiment [2] (setting [3]) is 7.26.
With `CCS(=O)(=O)C1(CN2CCc3c(C(=O)NCc4ccc(C#N)cc4)nn(C)c3C2=O)CC1` [Example 20, N-(4-Cyanobenzyl)-6-((1-(ethylsulfonyl)cyclopropyl)methyl)-1-methyl-7-ox0-4,5,6,7-tetrahydro-1 H-pyrazolo[3,4-c]pyridine-3-carboxamide], the negative-log EC50 (pEC50) in experiment [1] was 6.97. Also, the negative-log IC50 (pIC50) in experiment [2] (setting [3]) was 8.22.
On to `Cn1nc(C(=O)NCc2ccc(C#N)cc2)c2c1C(=O)N(CC1(S(C)(=O)=O)CC1)CC2` [Example 21, N-(4-Cyanobenzyl)-1-methyl-6-((1-(methylsulfonyl)cyclopropyl)methyl)-7-oxo-4,5,6,7-tetrahydro-1 H-pyrazolo[3,4-c]pyridine-3-carboxamide], for which the pEC50 in experiment [1] was 6.83. Further, in experiment [2] (setting [3]), the pIC50 is 8.05.
In the case of `Cn1nc(C(=O)NCc2ccc(Cl)cc2)c2c1C(=O)N(CC1(S(C)(=O)=O)CC1)CC2` [Example 22, N-(4-Chlorobenzyl)-1-methyl-6-((1-(methylsulfonyl)cyclopropyl)methyl)-7-oxo-4,5,6,7-tetrahydro-1H-pyrazolo[3,4-c]pyridine-3-carboxamide], the negative-log EC50 (pEC50) in experiment [1] is 6.95. The negative-log IC50 (pIC50) in experiment [2] (setting [3]) was 7.92.
On to `Cn1nc(C(=O)NCc2ccc(C#N)c(F)c2)c2c1C(=O)N(CC1(S(C)(=O)=O)CC1)CC2` [Example 23, N-(4-Cyano-3-fluorobenzyl)-1-methyl-6-((1-(methylsulfonyl)cyclopropyl)methyl)-7-oxo-4,5,6,7-tetrahydro-1H-pyrazolo[3,4-c]pyridine-3-carboxamide], for which the negative logarithm of the EC50 (pEC50) in experiment [1] was 7.07. For the same compound, the negative logarithm of the IC50 (pIC50) in experiment [2] (setting [3]) was 8.15.
Take `Cn1nc(C(=O)COc2ccc(C#N)cc2)c2c1C(=O)N(CC1(S(=O)(=O)C3CC3)CC1)CC2` [Example 25, 4-(2-(6-((1-(Cyclopropylsulfonyl)cyclopropyl)methyl)-1-methyl-7-oxo-4,5,6,7-tetrahydro-1H-pyrazolo[3,4-c]pyridin-3-yl)-2-oxoethoxy)benzonitrile]: the negative-log EC50 (pEC50) in experiment [1] is 7.52. The compound further gave a negative logarithm of the IC50 (pIC50) in experiment [2] (setting [4]) of 8.70.
Consider `Cn1nc(-c2nnc(Cc3ccc(C#N)cc3)o2)c2c1C(=O)N(CC1(S(=O)(=O)C3CC3)CC1)CC2` [Example 26, 4-((5-(6-((1-(Cyclopropylsulfonyl)cyclopropyl)methyl)-1-methyl-7-oxo-4,5,6,7-tetrahydro-1H-pyrazolo[3,4-c]pyridin-3-yl)-1,3,4-oxadiazol-2-yl)methyl)benzonitrile], for which the pEC50 in experiment [1] is 6.12. The negative logarithm of the IC50 (pIC50) in experiment [2] (setting [4]) is 7.28.
As for `Cn1nc(-c2nc(Cc3ccc(C#N)cc3)no2)c2c1C(=O)N(CC1(S(=O)(=O)C3CC3)CC1)CC2` [Example 27, 4-((5-(6-((1-(Cyclopropylsulfonyl)cyclopropyl)methyl)-1-methyl-7-oxo-4,5,6,7-tetrahydro-1H-pyrazolo[3,4-c]pyridin-3-yl)-1,2,4-oxadiazol-3-yl)methyl)benzonitrile], the negative-log EC50 (pEC50) in experiment [1] is 6.68. In addition, the negative-log IC50 (pIC50) in experiment [2] (setting [3]) is 8.15.
Consider `Cn1nc(-c2noc(Cc3ccc(C#N)cc3)n2)c2c1C(=O)N(CC1(S(=O)(=O)C3CC3)CC1)CC2` [Example 28, 4-((3-(6-((1-(Cyclopropylsulfonyl)cyclopropyl)methyl)-1-methyl-7-oxo-4,5,6,7-tetrahydro-1H-pyrazolo[3,4-c]pyridin-3-yl)-1,2,4-oxadiazol-5-yl)methyl)benzonitrile], for which the negative logarithm of the EC50 (pEC50) in experiment [1] was 7.62. In experiment [2] (setting [4]), this compound gave a negative-log IC50 (pIC50) of 9.00.
With `Cn1nc(-c2nnn(Cc3ccc(C#N)cc3)n2)c2c1C(=O)N(CC1(S(=O)(=O)C3CC3)CC1)CC2` [Example 29, 4-((5-(6-((1-(Cyclopropylsulfonyl)cyclopropyl)methyl)-1-methyl-7-oxo-4,5,6,7-tetrahydro-1H-pyrazolo[3,4-c]pyridin-3-yl)-2H-tetrazol-2-yl)methyl)benzonitrile], the pEC50 in experiment [1] is 7.10. Further, in experiment [2] (setting [3]), the pIC50 was 9.00.
With `Cn1nc(-c2nnnn2Cc2ccc(C#N)cc2)c2c1C(=O)N(CC1(S(=O)(=O)C3CC3)CC1)CC2` [Example 30, 4-((5-(6-((1-(cyclopropylsulfonyl)cyclopropyl)methyl)-1-methyl-7-oxo-4,5,6,7-tetrahydro-1H-pyrazolo[3,4-c]pyridin-3-yl)-1H-tetrazol-1-yl)methyl)benzonitrile], the pEC50 in experiment [1] is < 5.00. In addition, in experiment [2] (setting [3]), the pIC50 is 6.03.
Take `Cn1nc(C2=NOC(c3ccc(C#N)cc3)C2)c2c1C(=O)N(CC1(S(=O)(=O)C3CC3)CC1)CC2` (stereo not shown) [Example 31, 4-(3-(6-((1-(Cyclopropylsulfonyl)cyclopropyl)methyl)-1-methyl-7-oxo-4,5,6,7-tetrahydro-1H-pyrazolo[3,4-c]pyridin-3-yl)-4,5-dihydroisoxazol-5-yl)benzonitrile]: the negative logarithm of the EC50 (pEC50) in experiment [1] is 7.00. In experiment [2] (setting [4]), the pIC50 was 7.92.
Regarding `Cn1nc(-c2cc(Cc3ccc(C#N)cc3)on2)c2c1C(=O)N(CC1(S(=O)(=O)C3CC3)CC1)CC2` [Example 34, 4-((3-(6-((1-(Cyclopropylsulfonyl)cyclopropyl)methyl)-1-methyl-7-oxo-4,5,6,7-tetrahydro-1H-pyrazolo[3,4-c]pyridin-3-yl)isoxazol-5-yl)methyl)benzonitrile], in experiment [1], the pEC50 was 8.00. For the same compound, in experiment [2] (setting [4]), the negative logarithm of the IC50 (pIC50) was 9.00.
For `Cn1nc(-c2cn(Cc3ccc(C#N)cc3)nn2)c2c1C(=O)N(CC1(S(=O)(=O)C3CC3)CC1)CC2` [Example 35, 4-((4-(6-((1-(Cyclopropylsulfonyl)cyclopropyl)methyl)-1-methyl-7-oxo-4,5,6,7-tetrahydro-1H-pyrazolo[3,4-c]pyridin-3-yl)-1H-1,2,3-triazol-1-yl)methyl)benzonitrile], the pEC50 in experiment [1] is 7.42. In addition, the pIC50 in experiment [2] (setting [4]) was 8.52.
Turning to `Cn1nc(-c2cn(CC3CCC(F)(F)CC3)nn2)c2c1C(=O)N(CC1(S(=O)(=O)C3CC3)CC1)CC2` [Example 36, 6-((1-(Cyclopropylsulfonyl)cyclopropyl)methyl)-3-(1-((4,4-difluorocyclohexyl)methyl)-1H-1,2,3-triazol-4-yl)-1-methyl-5,6-dihydro-1H-pyrazolo[3,4-c]pyridin-7(4H)-one], the pEC50 in experiment [1] is 6.24. Further, the negative-log IC50 (pIC50) in experiment [2] (setting [3]) was 8.30.
